Measured values as given in patent publication US9845291B2, “Estrogen receptor modulators and uses thereof” (Genentech, Inc., priority 2014, dated 2017).

Molecular target: estrogen receptor alpha (ESR1) (Homo sapiens, UniProt P03372)
Experiment: cell-based
Settings: for ER-alpha MCF7 HCS Sinf: MCF7 breast cancer cells, 4 hours, plateau of the maximal effect, DMSO and Fulvestrant define 0% and 100% changes in ESR1
Experimental: Where more than one name is associated with a Formula I compound or intermediate, the chemical structure shall define the compound.
Cell plates were incubated at 37° C., for 4 hours. Fixation and permeabilization were carried out using a Biotek EL406 plate washer and dispenser as follows. […] Samples were incubated 30 minutes. Well contents was aspirated and 50 ul/well of Phosphate Buffered Saline (PBS) containing 0.5% w/v bovine serum albumen, 0.5% v/v Triton X-100 (Antibody Dilution Buffer) was added to each well. Samples were incubated for 30 minutes. Well contents were aspirated and washed 3 times with 100 ul/well of PBS. Immunofluorescence staining of estrogen receptor alpha (ESR1) was carried out using a Biotek EL406 plate washer and dispenser as follows. […] Samples were incubated for 2 hours at room temperature. Samples were washed 4 times with 100 ul/well of PBS. […] Samples were incubated for 2 hours at room temperature. Samples were washed 3 times with 100 ul/well of PBS using a Biotek EL406. Quantitative fluorescence imaging of ESR1 was carried out using a Cellomics Arrayscan V (Thermo). […] Channel 1 (DNA stain) was used to define the nuclear region (Circ). […] Data analysis was carried out using Genedata Screener Software, with DMSO and 5 nM Fulvestrant treated samples being used to define the 0% and 100% changes in ESR1. The “Robust Fit” method was used to define the inflexion point of curve (EC50) and the plateau of the maximal effect (Sin f).

estrogen receptor alpha (ESR1), sequence (P03372 whole entry): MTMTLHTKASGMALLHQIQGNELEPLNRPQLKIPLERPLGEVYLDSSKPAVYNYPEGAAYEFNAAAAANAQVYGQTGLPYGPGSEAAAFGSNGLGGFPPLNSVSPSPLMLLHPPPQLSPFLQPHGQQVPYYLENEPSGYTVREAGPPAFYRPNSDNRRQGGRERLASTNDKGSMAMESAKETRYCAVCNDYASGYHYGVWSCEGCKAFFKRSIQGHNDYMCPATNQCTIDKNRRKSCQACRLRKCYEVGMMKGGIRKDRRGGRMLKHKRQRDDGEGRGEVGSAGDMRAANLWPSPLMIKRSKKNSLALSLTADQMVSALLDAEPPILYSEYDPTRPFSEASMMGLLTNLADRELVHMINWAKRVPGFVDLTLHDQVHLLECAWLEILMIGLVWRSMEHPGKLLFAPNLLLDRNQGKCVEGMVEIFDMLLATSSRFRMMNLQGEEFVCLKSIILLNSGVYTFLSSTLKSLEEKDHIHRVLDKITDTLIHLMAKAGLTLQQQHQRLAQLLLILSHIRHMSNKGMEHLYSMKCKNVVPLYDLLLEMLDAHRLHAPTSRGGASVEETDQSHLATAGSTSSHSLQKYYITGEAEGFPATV

SMILES	EC50	ER-alpha MCF7 HCS Sinf
CC/C(=C(\c1ccc(O)cc1)c1ccc(OC[C@H](C)N2CC[C@@H](CF)C2)cc1)c1ccccc1 [Example 24, 4-((Z)-1-(4-((S)-2-((R)-3-(Fluoromethyl)pyrrolidin-1-yl)propoxy)phenyl)-2-phenylbut-1-en-1-yl)phenol]	0.18 nM	−58%
CC/C(=C(/c1ccc(OCCN2CC(CF)C2)cc1)c1ccc2[nH]ncc2c1)c1ccccc1 [Example 25, (E)-5-(1-(4-(2-(3-(Fluoromethyl)azetidin-1-yl)ethoxy)phenyl)-2-phenylbut-1-en-1-yl)-1H-indazole]	1.5 nM	−92%
COc1ccc(/C(=C(\c2ccc(OCCN3CC[C@@H](CF)C3)cc2)c2ccc3[nH]nc(F)c3c2)C2CCC2)c(Cl)c1 [Example 26, (R,E)-5-(2-(2-Chloro-4-methoxyphenyl)-2-cyclobutyl-1-(4-(2-(3-(fluoromethyl)pyrrolidin-1-yl)ethoxy)phenyl)vinyl)-3-fluoro-1H-indazole]	0.6 nM	−75%
FC[C@@H]1CCN(CCOc2ccc(/C(=C(\c3ncc(C(F)(F)F)cc3Cl)C3CCC3)c3ccc4[nH]nc(F)c4c3)cc2)C1 [Example 27, (R,E)-5-(2-(3-Chloro-5-(trifluoromethyl)pyridin-2-yl)-2-cyclobutyl-1-(4-(2-(3-(fluoromethyl)pyrrolidin-1-yl)ethoxy)phenyl)vinyl)-3-fluoro-1H-indazole]	0.85 nM	−73%
O=C(C1=C(c2ccc(O)cc2)CCc2cc(O)ccc21)c1ccc(OCCN2CC(CF)C2)cc1 [Example 32, (4-(2-(3-(Fluoromethyl)azetidin-1-yl)ethoxy)phenyl)(6-hydroxy-2-(4-hydroxyphenyl)-3,4-dihydronaphthalen-1-yl)methanone]	0.19 nM	−101%
O=C(c1ccc(OCCN2CC(CF)C2)cc1)c1c(-c2ccc(F)c(F)c2)sc2cc(O)ccc12 [Example 35, (2-(3,4-difluorophenyl)-6-hydroxybenzo[b]thiophen-3-yl)(4-(2-(3-(fluoromethyl)azetidin-1-yl)ethoxy)phenyl)methanone]	0.55 nM	−98%
Cc1cc(-c2sc3cc(O)ccc3c2C(=O)c2ccc(OCCN3CC(CF)C3)cc2)ccc1F [Example 36, (2-(4-fluoro-3-methylphenyl)-6-hydroxybenzo[b]thiophen-3-yl)(4-(2-(3-(fluoromethyl)azetidin-1-yl)ethoxy)phenyl)methanone]	2.5 nM	−97%
O=C(c1ccc(OCCN2CC(CF)C2)cc1)c1c(-c2ccc(F)c(Cl)c2)sc2cc(O)ccc12 [Example 37, (2-(3-chloro-4-fluorophenyl)-6-hydroxybenzo[b]thiophen-3-yl)(4-(2-(3-(fluoromethyl)azetidin-1-yl)ethoxy)phenyl)methanone]	4.4 nM	−97%
Cc1cc(F)ccc1-c1sc2cc(O)ccc2c1C(=O)c1ccc(OCCN2CC(CF)C2)cc1 [Example 38, (2-(4-fluoro-2-methylphenyl)-6-hydroxybenzo[b]thiophen-3-yl)(4-(2-(3-(fluoromethyl)azetidin-1-yl)ethoxy)phenyl)methanone]	0.88 nM	−96%
O=C(c1ccc(OCCN2CC(CF)C2)cc1)c1c(-c2ccccc2)sc2cc(O)ccc12 [Example 39, (4-(2-(3-(fluoromethyl)azetidin-1-yl)ethoxy)phenyl)(6-hydroxy-2-phenylbenzo[b]thiophen-3-yl)methanone]	1.6 nM	−96%
Cc1cc(-c2c(C)c3cc(O)ccc3n2Cc2ccc(OCCN3CC(CF)C3)cc2)ccc1O [Example 41, 1-[[4-[2-[3-(fluoromethyl)azetidin-1-yl]ethoxy]phenyl]methyl]-2-(4-hydroxy-3-methyl-phenyl)-3-methyl-indol-5-ol]	0.0518 nM	−97.8%
Cc1cc(-c2c(C)c3cc(O)ccc3n2Cc2ccc(OCCN3CC[C@@H](CF)C3)cc2)ccc1O [Example 42, (R)-1-(4-(2-(3-(fluoromethyl)pyrrolidin-1-yl)ethoxy)benzyl)-2-(4-hydroxy-3-methylphenyl)-3-methyl-1H-indol-5-ol]	0.025 nM	−97.5%
Cc1cc(-c2c(C)c3cc(O)ccc3n2Cc2ccc(OC[C@H](C)N3CC[C@@H](CF)C3)cc2)ccc1O [Example 43, 1-[[4-[(2S)-2-[(3R)-3-(fluoromethyl)pyrrolidin-1-yl]propoxy]phenyl]methyl]-2-(4-hydroxy-3-methyl-phenyl)-3-methyl-indol-5-ol]	0.0179 nM	−96.0%
Cc1c(-c2ccc(O)c(F)c2)n(Cc2ccc(OCCN3CC[C@@H](CF)C3)cc2)c2ccc(O)cc12 [Example 44, 2-(3-fluoro-4-hydroxy-phenyl)-1-[[4-[2-[(3R)-3-(fluoromethyl)pyrrolidin-1-yl]ethoxy]phenyl]methyl]-3-methyl-indol-5-ol]	0.0278 nM	−98.1%
Cc1c(-c2ccc(O)c(F)c2)n(Cc2ccc(OC[C@H](C)N3CC[C@@H](CF)C3)cc2)c2ccc(O)cc12 [Example 45, 2-(3-fluoro-4-hydroxy-phenyl)-1-[[4-[(2S)-2-[(3R)-3-(fluoromethyl)pyrrolidin-1-yl]propoxy]phenyl]methyl]-3-methyl-indol-5-ol]	0.00632 nM	−97.5%
Cc1c(-c2ccc(O)c(Cl)c2)n(Cc2ccc(OCCN3CC(CF)C3)cc2)c2ccc(O)cc12 [Example 46, 2-(3-chloro-4-hydroxy-phenyl)-1-[[4-[2-[3-(fluoromethyl)azetidin-1-yl]ethoxy]phenyl]methyl]-3-methyl-indol-5-ol]	0.03 nM	−97.8%
Cc1c(-c2ccc(O)cc2Cl)n(Cc2ccc(OCCN3CC(CF)C3)cc2)c2ccc(O)cc12 [Example 47, 2-(2-chloro-4-hydroxy-phenyl)-1-[[4-[2-[3-(fluoromethyl)azetidin-1-yl]ethoxy]phenyl]methyl]-3-methyl-indol-5-ol]	0.115 nM	−94.1%
Cc1c(-c2ccc(O)cc2)n(Cc2ccc(OCCN3CC(CF)C3)cc2)c2ccc(O)c(F)c12 [Example 48, 4-fluoro-1-[[4-[2-[3-(fluoromethyl)azetidin-1-yl]ethoxy]phenyl]methyl]-2-(4-hydroxyphenyl)-3-methyl-indol-5-ol]	0.662 nM	−92.8%
Cc1c(-c2ccc(O)cc2)n(Cc2ccc(OCCN3CC(CF)C3)cc2)c2cc(F)c(O)cc12 [Example 49, 6-fluoro-1-(4-(2-(3-(fluoromethyl)azetidin-1-yl)ethoxy)benzyl)-2-(4-hydroxyphenyl)-3-methyl-1H-indol-5-ol]	0.187 nM	−95.6%
Cc1c(-c2ccc(O)cc2Cl)n(Cc2ccc(OCCN3CC[C@@H](CF)C3)cc2)c2ccc(O)cc12 [Example 55, 2-(2-chloro-4-hydroxyphenyl)-1-(4-(2-((R)-3-(fluoromethyl)pyrrolidin-1-yl)ethoxy)benzyl)-3-methyl-1H-indol-5-ol]	0.0199 nM	−98.7%
Cc1c(-c2ccc(O)cc2Cl)n(Cc2ccc(OC[C@H](C)N3CC[C@@H](CF)C3)cc2)c2ccc(O)cc12 [Example 56, 2-(2-chloro-4-hydroxyphenyl)-1-(4-((S)-2-((R)-3-(fluoromethyl)pyrrolidin-1-yl)propoxy)benzyl)-3-methyl-1H-indol-5-ol]	0.0285 nM	−95.6%
Cc1cc(O)ccc1-c1c(C)c2cc(O)ccc2n1Cc1ccc(OCCN2CC(CF)C2)cc1 [Example 57, 1-[[4-[2-[3-(fluoromethyl)azetidin-1-yl]ethoxy]phenyl]methyl]-2-(4-hydroxy-2-methyl-phenyl)-3-methyl-indol-5-ol]	0.0469 nM	−93.4%
Oc1cccc([C@H]2Sc3c(ccc(O)c3F)O[C@H]2c2ccc(OCCN3CC(CF)C3)cc2)c1 [Example 58, (2S,3R)-5-fluoro-2-(4-(2-(3-(fluoromethyl)azetidin-1-yl)ethoxy)phenyl)-3-(3-hydroxyphenyl)-2,3-dihydrobenzo[b][1,4]oxathiin-6-ol]	0.026 nM	−99.8%
Oc1cccc([C@@H]2Sc3c(ccc(O)c3F)O[C@@H]2c2ccc(OCCN3CC(CF)C3)cc2)c1 [Example 60, (2R,3S)-5-fluoro-2-(4-(2-(3-(fluoromethyl)azetidin-1-yl)ethoxy)phenyl)-3-(3-hydroxyphenyl)-2,3-dihydrobenzo[b][1,4]oxathiin-6-ol]	15.8 nM	−91.9%
C[C@@H](COc1ccc(Oc2c(-c3ccc(S(C)(=O)=O)cc3)ccc3cc(O)ccc23)cc1)N1CC[C@@H](CF)C1 [Example 66, 5-[4-[(2S)-2-[(3R)-3-(fluoromethyl)pyrrolidin-1-yl]propoxy]phenoxy]-6-(4-methylsulfonylphenyl) naphthalen-2-ol]	0.006 nM	−93.4%
CS(=O)(=O)c1ccc(-c2ccc3cc(O)ccc3c2C(=O)c2ccc(OCCN3CC[C@@H](CF)C3)cc2)cc1 [Example 67, [4-[2-[(3R)-3-(fluoromethyl)pyrrolidin-1-yl]ethoxy]phenyl]-[6-hydroxy-2-(4-methylsulfonylphenyl)-1-naphthyl]methanone]	0.414 nM	−97.6%
